The structures appear in SMILES notation.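 Each compound was tested at five concentrations against cells in 96-well plates for 48 hours. GI50: concentration for 50% inhibition of growth. TGI denotes the concentration required for complete inhibition of growth.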

For one assay, the system named is SN12C renal. Briefly: NCI-60 cell line screen, 48 h.
In the case of `CCn1c(-c2nonc2N)nc2c(C#CCN)ncc(OCCCN)c21`, the GI50 was greater than 25 µM and the TGI is greater than 25 µM.
Take `CN1CCN(Cc2ccc(C(=O)Nc3cncc(C#Cc4cnc(N)c5ccccc45)c3)cc2C(F)(F)F)CC1`: the GI50 is 1.8 µM and the TGI is 3.47 µM.
The corresponding values for `N#CC(=C1SCS1)[N+](=O)[O-]` are 4.35 µM and 18.4 µM.
The corresponding values for `O=C(NNc1nc2c(F)cccc2n2cccc12)c1cnccn1` are 0.602 µM and 31.7 µM.
On to `COc1cc(/C=C\[N+](=O)[O-])ccc1O`, for which the GI50 was 2.49 µM and the TGI came to 7.74 µM.
For `O=C(Nc1cccc(-n2ccc3c(NC(=O)c4ccccc4)nccc32)c1)c1cccc(C(F)(F)F)c1`, the GI50 is 0.0591 µM and the TGI was greater than 59.3 µM.
Turning to `C=CC(=O)N[C@H]1C=C(C)c2c(-c3cnc4ccccc4c3)c3c(N)ncnc3n2C1`, the GI50 was 12.9 µM and the TGI turned out to be 98.2 µM.
On to `C=C1C(O)C2CCC(C)(C)C(=O)C2=C(CC(C)C)C12CC2` (stereo not given), for which the GI50 was 63.8 µM and the TGI is greater than 100 µM.
The corresponding values for `CCOc1ccc(S(=O)(=O)/N=C2\C=C(SCC(=O)O)C(=O)c3ccccc32)cc1` are 2.15 µM and 4.97 µM.
The corresponding values for `C[C@@H]1CC[C@@H]2[C@@H]1[C@H](OC(=O)/C=C/c1ccccc1)[C@]1(c3ccccc3)C[C@@H](OC(=O)CO)[C@@]2(C)O1` are 0.538 µM and 22.4 µM.
Taken in the same sequence, the figures for `O=C(c1ccc2ccccc2c1)c1c(C(F)(F)F)n([O-])c2cc(Cl)c(Cl)cc2[n+]1=O` were 1.73 µM and 3.1 µM.
Regarding `O=C1/C(=C/c2ccc(F)cc2)CCOc2ccc([N+](=O)[O-])cc21`, the GI50 was 6.97 µM and the TGI turned out to be 21 µM.
Taken in the same sequence, the figures for `O=C(CSc1nc2ccc([N+](=O)[O-])cc2[nH]1)Nc1ccc(F)c(Cl)c1` were 2.36 µM and 10.7 µM.
Regarding `C=C1C(=O)O[C@H]2[C@H]1CC/C(CNC(=O)c1c[nH]c3ccc(F)cc13)=C\CC[C@@]1(C)O[C@@H]21`, the GI50 was 1.98 µM and the TGI came out at 5.42 µM.

The subject of a further assay is SF-539 CNS. Description: NCI-60 cell line screen, 48 h.
For the compound `CCn1c(-c2nonc2N)nc2c(C#CCN)ncc(OCCCN)c21`, the GI50 was greater than 25 µM and the TGI is greater than 25 µM.
Turning to `CN1CCN(Cc2ccc(C(=O)Nc3cncc(C#Cc4cnc(N)c5ccccc45)c3)cc2C(F)(F)F)CC1`, the GI50 was 1.54 µM and the TGI is 2.89 µM.
As for `N#CC(=C1SCS1)[N+](=O)[O-]`, the GI50 was 2.23 µM and the TGI stood at 12.7 µM.
For the compound `O=C(NNc1nc2c(F)cccc2n2cccc12)c1cnccn1`, the GI50 was 0.487 µM and the TGI worked out at 14.5 µM.
In the case of `COc1cc(/C=C\[N+](=O)[O-])ccc1O`, the GI50 is 2.03 µM and the TGI turned out to be 5.18 µM.
Taken in the same sequence, the figures for `O=C(Nc1cccc(-n2ccc3c(NC(=O)c4ccccc4)nccc32)c1)c1cccc(C(F)(F)F)c1` were 0.0314 µM and 2.14 µM.
For `C=CC(=O)N[C@H]1C=C(C)c2c(-c3cnc4ccccc4c3)c3c(N)ncnc3n2C1`, the GI50 is 13.3 µM and the TGI came to 31.6 µM.
With `C=C1C(O)C2CCC(C)(C)C(=O)C2=C(CC(C)C)C12CC2` (stereo not given), the GI50 was 70.7 µM and the TGI is greater than 100 µM.
Taken in the same sequence, the figures for `CCOc1ccc(S(=O)(=O)/N=C2\C=C(SCC(=O)O)C(=O)c3ccccc32)cc1` were 2.49 µM and 5.39 µM.
For the compound `C[C@@H]1CC[C@@H]2[C@@H]1[C@H](OC(=O)/C=C/c1ccccc1)[C@]1(c3ccccc3)C[C@@H](OC(=O)CO)[C@@]2(C)O1`, the GI50 was 14.6 µM and the TGI came to 28.3 µM.
Consider `O=C(c1ccc2ccccc2c1)c1c(C(F)(F)F)n([O-])c2cc(Cl)c(Cl)cc2[n+]1=O`, for which the GI50 is 1.59 µM and the TGI stood at 2.93 µM.
The corresponding values for `O=C1/C(=C/c2ccc(F)cc2)CCOc2ccc([N+](=O)[O-])cc21` are 2.52 µM and 5.99 µM.
Take `O=C(CSc1nc2ccc([N+](=O)[O-])cc2[nH]1)Nc1ccc(F)c(Cl)c1`: the GI50 was 3 µM and the TGI was 11.4 µM.
Taken in the same sequence, the figures for `C=C1C(=O)O[C@H]2[C@H]1CC/C(CNC(=O)c1c[nH]c3ccc(F)cc13)=C\CC[C@@]1(C)O[C@@H]21` were 1.37 µM and 2.81 µM.

Another assay deals with SW-620 colon. Description: NCI-60 cell line screen, 48 h.
Take `CCn1c(-c2nonc2N)nc2c(C#CCN)ncc(OCCCN)c21`: the GI50 is greater than 25 µM and the TGI is greater than 25 µM.
In the case of `CN1CCN(Cc2ccc(C(=O)Nc3cncc(C#Cc4cnc(N)c5ccccc45)c3)cc2C(F)(F)F)CC1`, the GI50 was 1.78 µM and the TGI worked out at 3.89 µM.
For `N#CC(=C1SCS1)[N+](=O)[O-]`, the GI50 is 0.454 µM and the TGI came out at 6.47 µM.
In the case of `O=C(NNc1nc2c(F)cccc2n2cccc12)c1cnccn1`, the GI50 was 0.435 µM and the TGI was found to be 38.5 µM.
The corresponding values for `COc1cc(/C=C\[N+](=O)[O-])ccc1O` are 2.1 µM and 5.02 µM.
Taken in the same sequence, the figures for `O=C(Nc1cccc(-n2ccc3c(NC(=O)c4ccccc4)nccc32)c1)c1cccc(C(F)(F)F)c1` were 0.0411 µM and 13.4 µM.
Taken in the same sequence, the figures for `C=CC(=O)N[C@H]1C=C(C)c2c(-c3cnc4ccccc4c3)c3c(N)ncnc3n2C1` were 23.8 µM and greater than 95.5 µM.
For the compound `C=C1C(O)C2CCC(C)(C)C(=O)C2=C(CC(C)C)C12CC2` (stereo not given), the GI50 is 42 µM and the TGI was greater than 100 µM.
Take `CCOc1ccc(S(=O)(=O)/N=C2\C=C(SCC(=O)O)C(=O)c3ccccc32)cc1`: the GI50 was 3.31 µM and the TGI worked out at 11.1 µM.
`C[C@@H]1CC[C@@H]2[C@@H]1[C@H](OC(=O)/C=C/c1ccccc1)[C@]1(c3ccccc3)C[C@@H](OC(=O)CO)[C@@]2(C)O1`: the GI50 is 19.1 µM and the TGI was 42.6 µM.
With `O=C(c1ccc2ccccc2c1)c1c(C(F)(F)F)n([O-])c2cc(Cl)c(Cl)cc2[n+]1=O`, the GI50 was 1.63 µM and the TGI was 2.98 µM.
The corresponding values for `O=C1/C(=C/c2ccc(F)cc2)CCOc2ccc([N+](=O)[O-])cc21` are 1.35 µM and 4.04 µM.
On to `O=C(CSc1nc2ccc([N+](=O)[O-])cc2[nH]1)Nc1ccc(F)c(Cl)c1`, for which the GI50 is 3.26 µM and the TGI is 15.7 µM.
As to `C=C1C(=O)O[C@H]2[C@H]1CC/C(CNC(=O)c1c[nH]c3ccc(F)cc13)=C\CC[C@@]1(C)O[C@@H]21`, the GI50 was 0.639 µM and the TGI was 2.1 µM.

The next assay relates to IGROV1 ovarian. Description: NCI-60 cell line screen, 48 h.
Take `CCn1c(-c2nonc2N)nc2c(C#CCN)ncc(OCCCN)c21`: the GI50 was greater than 25 µM and the TGI is greater than 25 µM.
As to `CN1CCN(Cc2ccc(C(=O)Nc3cncc(C#Cc4cnc(N)c5ccccc45)c3)cc2C(F)(F)F)CC1`, the GI50 is 1.87 µM and the TGI was found to be 4.43 µM.
For `N#CC(=C1SCS1)[N+](=O)[O-]`, the GI50 is 3.55 µM and the TGI was 71.1 µM.
The corresponding values for `O=C(NNc1nc2c(F)cccc2n2cccc12)c1cnccn1` are 0.328 µM and 29.1 µM.
The corresponding values for `COc1cc(/C=C\[N+](=O)[O-])ccc1O` are 2.61 µM and 6.97 µM.
In the case of `O=C(Nc1cccc(-n2ccc3c(NC(=O)c4ccccc4)nccc32)c1)c1cccc(C(F)(F)F)c1`, the GI50 was 0.0844 µM and the TGI was greater than 46.9 µM.
Taken in the same sequence, the figures for `C=CC(=O)N[C@H]1C=C(C)c2c(-c3cnc4ccccc4c3)c3c(N)ncnc3n2C1` were 0.568 µM and 12.2 µM.
On to `C=C1C(O)C2CCC(C)(C)C(=O)C2=C(CC(C)C)C12CC2` (stereo not given), for which the GI50 was greater than 100 µM and the TGI was greater than 100 µM.
As for `CCOc1ccc(S(=O)(=O)/N=C2\C=C(SCC(=O)O)C(=O)c3ccccc32)cc1`, the GI50 is 2.14 µM and the TGI was found to be 4.34 µM.
Taken in the same sequence, the figures for `C[C@@H]1CC[C@@H]2[C@@H]1[C@H](OC(=O)/C=C/c1ccccc1)[C@]1(c3ccccc3)C[C@@H](OC(=O)CO)[C@@]2(C)O1` were 17 µM and 44.5 µM.
In the case of `O=C(c1ccc2ccccc2c1)c1c(C(F)(F)F)n([O-])c2cc(Cl)c(Cl)cc2[n+]1=O`, the GI50 is 1.3 µM and the TGI was 2.56 µM.
The corresponding values for `O=C1/C(=C/c2ccc(F)cc2)CCOc2ccc([N+](=O)[O-])cc21` are 3.15 µM and 10.8 µM.
Taken in the same sequence, the figures for `O=C(CSc1nc2ccc([N+](=O)[O-])cc2[nH]1)Nc1ccc(F)c(Cl)c1` were 2.65 µM and 14.6 µM.
Regarding `C=C1C(=O)O[C@H]2[C@H]1CC/C(CNC(=O)c1c[nH]c3ccc(F)cc13)=C\CC[C@@]1(C)O[C@@H]21`, the GI50 was 1.63 µM and the TGI amounted to 5.47 µM.

Another assay has as its system NCI-H460 lung. Description: NCI-60 cell line screen, 48 h.
Take `CCn1c(-c2nonc2N)nc2c(C#CCN)ncc(OCCCN)c21`: the GI50 was greater than 25 µM and the TGI is greater than 25 µM.
Consider `CN1CCN(Cc2ccc(C(=O)Nc3cncc(C#Cc4cnc(N)c5ccccc45)c3)cc2C(F)(F)F)CC1`, for which the GI50 is 1.76 µM and the TGI amounted to 3.39 µM.
Taken in the same sequence, the figures for `N#CC(=C1SCS1)[N+](=O)[O-]` were 2.99 µM and 10.1 µM.
Taken in the same sequence, the figures for `O=C(NNc1nc2c(F)cccc2n2cccc12)c1cnccn1` were 0.331 µM and 11 µM.
Taken in the same sequence, the figures for `COc1cc(/C=C\[N+](=O)[O-])ccc1O` were 3.51 µM and 13.7 µM.
In the case of `O=C(Nc1cccc(-n2ccc3c(NC(=O)c4ccccc4)nccc32)c1)c1cccc(C(F)(F)F)c1`, the GI50 is 0.0354 µM and the TGI stood at 1.22 µM.
The corresponding values for `C=CC(=O)N[C@H]1C=C(C)c2c(-c3cnc4ccccc4c3)c3c(N)ncnc3n2C1` are 18.1 µM and 72.8 µM.
Taken in the same sequence, the figures for `C=C1C(O)C2CCC(C)(C)C(=O)C2=C(CC(C)C)C12CC2` (stereo not given) were 32.8 µM and greater than 100 µM.
Taken in the same sequence, the figures for `CCOc1ccc(S(=O)(=O)/N=C2\C=C(SCC(=O)O)C(=O)c3ccccc32)cc1` were 12.4 µM and 28.2 µM.
Take `C[C@@H]1CC[C@@H]2[C@@H]1[C@H](OC(=O)/C=C/c1ccccc1)[C@]1(c3ccccc3)C[C@@H](OC(=O)CO)[C@@]2(C)O1`: the GI50 was 16.3 µM and the TGI is 38.6 µM.
The corresponding values for `O=C(c1ccc2ccccc2c1)c1c(C(F)(F)F)n([O-])c2cc(Cl)c(Cl)cc2[n+]1=O` are 2.02 µM and 4.15 µM.
Taken in the same sequence, the figures for `O=C1/C(=C/c2ccc(F)cc2)CCOc2ccc([N+](=O)[O-])cc21` were 17.4 µM and 34.9 µM.
The corresponding values for `O=C(CSc1nc2ccc([N+](=O)[O-])cc2[nH]1)Nc1ccc(F)c(Cl)c1` are 2.87 µM and 11.3 µM.
For the compound `C=C1C(=O)O[C@H]2[C@H]1CC/C(CNC(=O)c1c[nH]c3ccc(F)cc13)=C\CC[C@@]1(C)O[C@@H]21`, the GI50 was 3.43 µM and the TGI turned out to be 14.8 µM.
